Tested on: 772245-204-R-J1-PDC complex spheroid growth
Assay: Anticancer human tumor 772245-204-R-J1-PDC patient-derived rhabdomyosarcoma cell line growth inhibition [Asc]
Details: for IC50: curve of first compound; for viability, T/C: stronger effect = lower value
Outline: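 Complex solid-tumor spheroids incorporating human endothelial and mesenchymal stem cells received single agents or combinations over half-log dilution ranges anchored to clinical Cmax.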

[1] = second compound 0.03 µM, first compound 0.0316 µM
[2] = second compound 0.03 µM, first compound 0.1 µM
[3] = second compound 0.03 µM, first compound 0.316 µM
[4] = second compound 0.03 µM, first compound 1 µM
[5] = second compound 0.0949 µM, first compound 0.0316 µM
[6] = second compound 0.0949 µM, first compound 0.1 µM
[7] = second compound 0.0949 µM, first compound 0.316 µM
[8] = second compound 0.0949 µM, first compound 1 µM
[9] = second compound 0.3 µM, first compound 0.0316 µM
[10] = second compound 0.3 µM, first compound 0.1 µM
[11] = second compound 0.3 µM, first compound 0.316 µM
[12] = second compound 0.3 µM, first compound 1 µM
[13] = second compound 0.949 µM, first compound 0.0316 µM
[14] = second compound 0.949 µM, first compound 0.1 µM
[15] = second compound 0.949 µM, first compound 0.316 µM
[16] = second compound 0.949 µM, first compound 1 µM
[17] = second compound 3 µM, first compound 0.0316 µM
[18] = second compound 3 µM, first compound 0.1 µM
[19] = second compound 3 µM, first compound 0.316 µM
[20] = second compound 3 µM, first compound 1 µM
[21] = second compound 0.1 µM, first compound 0.00316 µM
[22] = second compound 0.1 µM, first compound 0.01 µM
[23] = second compound 0.1 µM, first compound 0.0316 µM
[24] = second compound 0.1 µM, first compound 0.1 µM
[25] = second compound 0.1 µM, first compound 0.316 µM
[26] = second compound 0.1 µM, first compound 1 µM
[27] = second compound 0.316 µM, first compound 0.00316 µM
[28] = second compound 0.316 µM, first compound 0.01 µM
[29] = second compound 0.316 µM, first compound 0.0316 µM
[30] = second compound 0.316 µM, first compound 0.1 µM
[31] = second compound 0.316 µM, first compound 0.316 µM
[32] = second compound 0.316 µM, first compound 1 µM
[33] = second compound 1 µM, first compound 0.00316 µM
[34] = second compound 1 µM, first compound 0.01 µM
[35] = second compound 1 µM, first compound 0.0316 µM
[36] = second compound 1 µM, first compound 0.1 µM
[37] = second compound 1 µM, first compound 0.316 µM
[38] = second compound 1 µM, first compound 1 µM
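Note: compound exposure lasted seven days.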
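Throughout, for viability, T/C: 100% = DMSO vehicle control viability.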

In the case of C=CC(=O)N1CCN(c2nc(=O)n(-c3c(C)ccnc3C(C)C)c3nc(-c4c(O)cccc4F)c(F)cc23)C(C)C1 (stereo not given) + CCN1C(C(=O)NC23CCC(C(=O)O)(CC2)CC3)C(c2cccc(Cl)c2F)C2(C(=O)Nc3cc(Cl)ccc32)C12CCCCC2, the IC50 (second compound 0.03 µM) is reported as over 10000 nM, the IC50 (second compound 0.0949 µM) is reported as over 10000 nM and the IC50 (second compound 0.3 µM) is reported as over 10000 nM. For the same compound, the IC50 (second compound 0.949 µM) was over 10000 nM, the IC50 (second compound 3 µM) was over 10000 nM and the viability, T/C [1] was 105%. For the same compound, the viability, T/C [2] was 102%, the viability, T/C [3] was 94.9% and the viability, T/C [4] was 113%. For the same compound, the viability, T/C (second compound 0.03 µM, first compound 3.16 µM) was 110%, the viability, T/C (second compound 0.03 µM, first compound 10 µM) was 86.4% and the viability, T/C [5] was 112%. The viability, T/C [6] was 104%, the viability, T/C [7] was 103% and the viability, T/C [8] was 102%. It also gave a viability, T/C (second compound 0.0949 µM, first compound 3.16 µM) of 106%, a viability, T/C (second compound 0.0949 µM, first compound 10 µM) of 103% and a viability, T/C [9] of 104%. For the same compound, the viability, T/C [10] was 111%, the viability, T/C [11] was 113% and the viability, T/C [12] was 113%. It also gave a viability, T/C (second compound 0.3 µM, first compound 3.16 µM) of 113%, a viability, T/C (second compound 0.3 µM, first compound 10 µM) of 93.8% and a viability, T/C [13] of 111%. The viability, T/C [14] was 94.8%, the viability, T/C [15] was 99.5% and the viability, T/C [16] was 105%. It also gave a viability, T/C (second compound 0.949 µM, first compound 3.16 µM) of 104%, a viability, T/C (second compound 0.949 µM, first compound 10 µM) of 79.3% and a viability, T/C [17] of 81.9%. It also gave a viability, T/C [18] of 85.7%, a viability, T/C [19] of 74% and a viability, T/C [20] of 77%. The viability, T/C (second compound 3 µM, first compound 3.16 µM) was 75.2% and the viability, T/C (second compound 3 µM, first compound 10 µM) was 60.8%.

Compound CNC(C)C(=O)NC1CN(S(=O)(=O)c2cccc(S(=O)(=O)N3CCC4CCC(C(=O)NC(c5ccccc5)c5ccccc5)N4C(=O)C(NC(=O)C(C)NC)C3)c2)CCC2CCC(C(=O)NC(c3ccccc3)c3ccccc3)N2C1=O (stereo not given) + Cc1c(S(C)(=O)=O)c(-c2cc(F)cc(N3CCN(c4ccc(NS(=O)(=O)c5ccc(NC(CCN6CCC(C(=O)OCCCP(=O)(O)O)CC6)CSc6ccccc6)c(S(=O)(=O)C(F)(F)F)c5)cc4)CC3)c2)c(-c2ccc(Cl)cc2)n1C(C)C has an IC50 (second compound 0.1 µM) of over 1000 nM, an IC50 (second compound 0.316 µM) of 72 nM and an IC50 (second compound 1 µM) of under 3.16 nM. It also gave an IC50 (second compound 3.16 µM) of under 3.16 nM, an IC50 (second compound 10 µM) of under 3.16 nM and a viability, T/C [21] of 79.9%. For the same compound, the viability, T/C [22] was 66.3%, the viability, T/C [23] was 72.7% and the viability, T/C [24] was 64.8%. For the same compound, the viability, T/C [25] was 63.5%, the viability, T/C [26] was 63% and the viability, T/C [27] was 56.1%. For the same compound, the viability, T/C [28] was 56.5%, the viability, T/C [29] was 55% and the viability, T/C [30] was 45.8%. It also gave a viability, T/C [31] of 45.2%, a viability, T/C [32] of 44.5% and a viability, T/C [33] of 43%. The viability, T/C [34] was 53.5%, the viability, T/C [35] was 37.9% and the viability, T/C [36] was 37.1%. It also gave a viability, T/C [37] of 35.2%, a viability, T/C [38] of 39.1% and a viability, T/C (second compound 3.16 µM, first compound 0.00316 µM) of 31.4%. It also gave a viability, T/C (second compound 3.16 µM, first compound 0.01 µM) of 32.8%, a viability, T/C (second compound 3.16 µM, first compound 0.0316 µM) of 31.6% and a viability, T/C (second compound 3.16 µM, first compound 0.1 µM) of 29.5%. For the same compound, the viability, T/C (second compound 3.16 µM, first compound 0.316 µM) was 29.8%, the viability, T/C (second compound 3.16 µM, first compound 1 µM) was 25% and the viability, T/C (second compound 10 µM, first compound 0.00316 µM) was 32.2%. For the same compound, the viability, T/C (second compound 10 µM, first compound 0.01 µM) was 41.5%, the viability, T/C (second compound 10 µM, first compound 0.0316 µM) was 31.4% and the viability, T/C (second compound 10 µM, first compound 0.1 µM) was 25.2%. For the same compound, the viability, T/C (second compound 10 µM, first compound 0.316 µM) was 23.7% and the viability, T/C (second compound 10 µM, first compound 1 µM) was 22.3%.

Work on CCN1CCN(Cc2ccc(Nc3ncc(F)c(-c4cc(F)c5nc(C)n(C(C)C)c5c4)n3)nc2)CC1 + CCN1C(C(=O)NC23CCC(C(=O)O)(CC2)CC3)C(c2cccc(Cl)c2F)C2(C(=O)Nc3cc(Cl)ccc32)C12CCCCC2 yielded an IC50 (second compound 0.03 µM) of over 1000 nM, an IC50 (second compound 0.0949 µM) of over 1000 nM and an IC50 (second compound 0.3 µM) of over 1000 nM. The IC50 (second compound 0.949 µM) was over 1000 nM, the IC50 (second compound 3 µM) was over 1000 nM and the viability, T/C (second compound 0.03 µM, first compound 0.00316 µM) was 100%. It also gave a viability, T/C (second compound 0.03 µM, first compound 0.01 µM) of 97.4%, a viability, T/C [1] of 103% and a viability, T/C [2] of 110%. The viability, T/C [3] was 114%, the viability, T/C [4] was 116% and the viability, T/C (second compound 0.0949 µM, first compound 0.00316 µM) was 99.5%. The viability, T/C (second compound 0.0949 µM, first compound 0.01 µM) was 110%, the viability, T/C [5] was 101% and the viability, T/C [6] was 111%. The viability, T/C [7] was 114%, the viability, T/C [8] was 116% and the viability, T/C (second compound 0.3 µM, first compound 0.00316 µM) was 106%. It also gave a viability, T/C (second compound 0.3 µM, first compound 0.01 µM) of 111%, a viability, T/C [9] of 122% and a viability, T/C [10] of 103%. The viability, T/C [11] was 102%, the viability, T/C [12] was 131% and the viability, T/C (second compound 0.949 µM, first compound 0.00316 µM) was 94.3%. For the same compound, the viability, T/C (second compound 0.949 µM, first compound 0.01 µM) was 93.4%, the viability, T/C [13] was 100% and the viability, T/C [14] was 102%. The viability, T/C [15] was 92.9%, the viability, T/C [16] was 96% and the viability, T/C (second compound 3 µM, first compound 0.00316 µM) was 77.9%. For the same compound, the viability, T/C (second compound 3 µM, first compound 0.01 µM) was 84.7%, the viability, T/C [17] was 85.5% and the viability, T/C [18] was 89.9%. The viability, T/C [19] was 80.1% and the viability, T/C [20] was 121%.

In the case of COc1c(OCCCN2CCOCC2)ccc2c3n(c(=NC(=O)c4cnc(N)nc4)nc12)CCN3 + CNC(C)C(=O)NC1CN(S(=O)(=O)c2cccc(S(=O)(=O)N3CCC4CCC(C(=O)NC(c5ccccc5)c5ccccc5)N4C(=O)C(NC(=O)C(C)NC)C3)c2)CCC2CCC(C(=O)NC(c3ccccc3)c3ccccc3)N2C1=O, the IC50 (second compound 0.01 µM) is reported as 193 nM, the IC50 (second compound 0.0316 µM) is reported as 89.5 nM and the IC50 (second compound 0.1 µM) is reported as 114 nM. The IC50 (second compound 0.316 µM) was 72.6 nM, the IC50 (second compound 1 µM) was 111 nM and the viability, T/C (second compound 0.01 µM, first compound 0.00316 µM) was 108%. For the same compound, the viability, T/C (second compound 0.01 µM, first compound 0.01 µM) was 95.2%, the viability, T/C (second compound 0.01 µM, first compound 0.0316 µM) was 81.7% and the viability, T/C (second compound 0.01 µM, first compound 0.1 µM) was 64.3%. It also gave a viability, T/C (second compound 0.01 µM, first compound 0.316 µM) of 38.4%, a viability, T/C (second compound 0.01 µM, first compound 1 µM) of 26.9% and a viability, T/C (second compound 0.0316 µM, first compound 0.00316 µM) of 93.7%. It also gave a viability, T/C (second compound 0.0316 µM, first compound 0.01 µM) of 112%, a viability, T/C (second compound 0.0316 µM, first compound 0.0316 µM) of 78.2% and a viability, T/C (second compound 0.0316 µM, first compound 0.1 µM) of 47.9%. The viability, T/C (second compound 0.0316 µM, first compound 0.316 µM) was 38.8%, the viability, T/C (second compound 0.0316 µM, first compound 1 µM) was 27.2% and the viability, T/C [21] was 97.4%. The viability, T/C [22] was 97.2%, the viability, T/C [23] was 68.1% and the viability, T/C [24] was 53.8%. The viability, T/C [25] was 35.4%, the viability, T/C [26] was 23.2% and the viability, T/C [27] was 92.9%. For the same compound, the viability, T/C [28] was 93.8%, the viability, T/C [29] was 73.4% and the viability, T/C [30] was 40.1%. It also gave a viability, T/C [31] of 30.7%, a viability, T/C [32] of 22% and a viability, T/C [33] of 86%. For the same compound, the viability, T/C [34] was 96.6%, the viability, T/C [35] was 75.7% and the viability, T/C [36] was 51.3%. It also gave a viability, T/C [37] of 32.5% and a viability, T/C [38] of 21.6%.

— PubChem BioAssay AID1963433 (Molecular Pharmacology Branch, DTP, NCI, 2024)
